Consider 39 compounds from ChEMBL document CHEMBL3784945, “Isoindolinone compounds active as Kv1.5 blockers identified using a multicomponent reaction approach” (Bioorg Med Chem Lett, 2016).

A word on the logD: it is the decadic logarithm of the distribution of all forms, ionised or not, between an organic phase and buffer at a given pH. A word on the IC50: it is the concentration that gives 50% inhibition. The low end stands for inhibition by little substance, the high end for a need for much substance.

A value given as a limit tells only on which side of the number the result lay.

Series [1] is described as follows: Lipophilicity, log D of the compound by HPLC analysis. The conditions noted are these: read-out: logD. The class given is physicochemical.
For series [2], the target named is Voltage-gated inwardly rectifying potassium channel KCNH2 (Homo sapiens, UniProt Q12809). The series can be described thus: Inhibition of human ERG.
Voltage-gated inwardly rectifying potassium channel KCNH2, sequence (Q12809 whole entry): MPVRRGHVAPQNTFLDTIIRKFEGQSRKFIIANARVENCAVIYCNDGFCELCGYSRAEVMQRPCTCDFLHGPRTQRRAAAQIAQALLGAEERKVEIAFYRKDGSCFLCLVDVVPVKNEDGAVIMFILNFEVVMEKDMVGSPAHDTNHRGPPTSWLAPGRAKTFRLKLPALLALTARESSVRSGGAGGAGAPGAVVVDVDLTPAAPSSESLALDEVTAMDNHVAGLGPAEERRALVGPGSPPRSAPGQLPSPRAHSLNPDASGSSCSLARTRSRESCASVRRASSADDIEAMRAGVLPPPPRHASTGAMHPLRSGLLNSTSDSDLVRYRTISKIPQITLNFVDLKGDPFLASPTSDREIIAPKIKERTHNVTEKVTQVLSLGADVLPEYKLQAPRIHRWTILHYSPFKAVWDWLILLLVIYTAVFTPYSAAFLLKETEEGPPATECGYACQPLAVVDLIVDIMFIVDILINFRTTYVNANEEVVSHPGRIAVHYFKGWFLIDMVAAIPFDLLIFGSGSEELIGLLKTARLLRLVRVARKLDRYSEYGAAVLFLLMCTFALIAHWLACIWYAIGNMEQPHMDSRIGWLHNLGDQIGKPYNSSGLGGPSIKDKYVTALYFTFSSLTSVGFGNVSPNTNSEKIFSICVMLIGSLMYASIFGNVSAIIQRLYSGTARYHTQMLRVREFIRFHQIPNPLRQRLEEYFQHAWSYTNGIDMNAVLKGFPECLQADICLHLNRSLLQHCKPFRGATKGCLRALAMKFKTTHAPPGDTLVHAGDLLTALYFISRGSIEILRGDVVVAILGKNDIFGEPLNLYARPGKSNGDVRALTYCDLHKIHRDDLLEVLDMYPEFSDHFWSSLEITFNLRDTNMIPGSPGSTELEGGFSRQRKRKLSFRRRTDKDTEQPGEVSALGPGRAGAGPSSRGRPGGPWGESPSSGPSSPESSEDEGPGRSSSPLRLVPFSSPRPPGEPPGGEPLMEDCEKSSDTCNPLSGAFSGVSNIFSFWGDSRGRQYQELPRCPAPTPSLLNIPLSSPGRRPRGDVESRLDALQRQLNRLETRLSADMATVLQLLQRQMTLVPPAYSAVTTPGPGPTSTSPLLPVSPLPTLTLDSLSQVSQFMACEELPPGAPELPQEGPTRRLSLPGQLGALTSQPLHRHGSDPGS
Series [3] can be described thus: (§1) Intrinsic clearance in human liver microsomes. The class given is ADME. Particulars: liver microsomes, read-out: CLH. A general note: Liver microsomes are a subcellular fraction often used to study metabolism.
In series [4] the target is T1, Potassium voltage-gated channel subfamily A member 5 (Homo sapiens, UniProt P22460). The series can be described thus: Inhibition of human Kv1.5 channel by QPatch-clamp method. For orientation: In patch-clamp work, channel activity is measured electrically.
T1 sequence (P22460 whole entry): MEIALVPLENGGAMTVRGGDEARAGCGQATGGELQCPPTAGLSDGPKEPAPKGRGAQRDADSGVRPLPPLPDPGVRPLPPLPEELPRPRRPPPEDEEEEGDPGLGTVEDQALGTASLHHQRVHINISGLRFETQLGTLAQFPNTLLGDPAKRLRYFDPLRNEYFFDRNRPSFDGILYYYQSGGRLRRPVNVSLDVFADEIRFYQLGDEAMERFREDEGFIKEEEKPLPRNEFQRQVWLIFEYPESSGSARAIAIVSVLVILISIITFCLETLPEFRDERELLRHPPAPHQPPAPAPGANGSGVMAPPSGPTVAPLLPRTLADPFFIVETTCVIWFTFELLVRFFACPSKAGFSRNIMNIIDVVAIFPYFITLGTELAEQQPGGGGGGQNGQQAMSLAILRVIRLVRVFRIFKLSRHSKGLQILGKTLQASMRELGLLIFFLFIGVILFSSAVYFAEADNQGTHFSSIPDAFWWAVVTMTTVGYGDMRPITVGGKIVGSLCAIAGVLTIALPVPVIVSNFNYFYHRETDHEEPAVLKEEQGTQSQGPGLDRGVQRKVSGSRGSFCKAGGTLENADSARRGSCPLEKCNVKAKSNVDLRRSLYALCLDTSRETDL
Series [5] has as its target T1, Potassium voltage-gated channel subfamily A member 5. The series can be described thus: Inhibition of human Kv1.5 channel by Rb-flux assay.
Another series relates to Liver microsome. The series is described as §1. The conditions noted are these: microsomes. In kind it is ADME.
The subject of the next series is Mus musculus. Briefly: In vivo inhibition of Kv1.5 channel in BaLBc mouse assessed as unbound steady-state plasma concentration required to increase QT-interval by 30% at 20 umol/kg,iv for 15 mins. In kind it is functional.

Regarding `CC(C)(C)NC(=O)C1c2ccccc2C(=O)N1Cc1ccccc1-c1ccccc1` (racemic), in series [1], the logD is 4.7. In series [2], the IC50 is 62 µM. In addition, the microsomal CLint in series [3] is over 100 µL/min/mg.

With `CCCCNC(=O)C1c2ccccc2C(=O)N1CC(C)(O)c1ccc(Cl)cc1` (stereo unspecified), in series [1], the logD was 3.5. Also, the microsomal CLint in series [3] came to 64 µL/min/mg. In addition, it took 1.2 µM to reach half-maximal inhibition in series [4] (IC50).

Take `CC(C)(C)NC(=O)C1c2ccc(C#N)cc2C(=O)N1Cc1ccccc1-c1ccccc1` (racemic): in series [5], the IC50 was found to be 37 µM. Besides, the logD in series [1] was 4.7. Further, in series [3], the microsomal CLint is over 100 µL/min/mg.

As for `Cc1c(O)ccc2c1C(=O)N(Cc1ccccc1-c1ccc(F)c(F)c1)C2C(=O)NC(C)(C)C` (stereo unspecified), in series [1], the logD was 4.6. Moreover, in series [3], the microsomal CLint was under 12 µL/min/mg. Besides, in series [4], the IC50 was 3.5 µM.

Consider `CC(C)(C)NC(=O)C1c2ccccc2C(=O)N1Cc1cc(F)ccc1-c1ccccc1` (single isomer, unassigned; enantiomer 2), for which the IC50 in series [2] is over 33 µM; in series [4] it was 1.6 µM. In addition, in the series on Liver microsome, the CLH amounted to 96 µL/min/mg.

`CC(c1ccccc1)N1C(=O)c2ccccc2C1C(=O)NCc1ccccc1` (racemic): in series [1], the logD worked out at 3.5. This compound also came in with an IC50 in series [2] of over 33 µM. Further, the microsomal CLint in series [3] was over 100 µL/min/mg.

With `CC(c1ccccc1)N1C(=O)c2ccccc2C1C(=O)NC(C)(C)CO` (racemic), the IC50 is over 32 µM in series [5], over 33 µM in series [2] and over 10 µM in series [4]. In addition, the microsomal CLint in series [3] came to 34 µL/min/mg.

Turning to `CC(C)(C)NC(=O)C1c2c(O)cccc2C(=O)N1Cc1ccccc1-c1ccccc1` (racemic), the logD in series [1] is 4.6. Moreover, the IC50 came to 28 µM in series [2] and 2.1 µM in series [4]. In series [3], the microsomal CLint was over 100 µL/min/mg.

Turning to `CCCCNC(=O)C1c2ccccc2C(=O)N1CC(C)c1ccc(Cl)cc1` (racemic), the IC50 in series [5] is 0.7 µM; in series [2], 32 µM; in series [4], 1.1 µM. Moreover, the logD in series [1] turned out to be 4.5. The microsomal CLint in series [3] was over 100 µL/min/mg.

Regarding `CC(C)(C)NC(=O)C1c2ccccc2C(=O)N1Cc1ccc(F)cc1-c1ccccc1` (single isomer, unassigned; enantiomer 1), in series [1], the logD is 5.2. Besides, the figures for the half-maximal inhibitory concentration (IC50) in series [2] and in series [4] were over 33 µM and 0.8 µM, respectively. In addition, the microsomal CLint in series [3] was found to be 58 µL/min/mg. Moreover, the Activity with Mus musculus stood at 0.054 µM.

On to `CC(C)(C)NC(=O)C1c2ccccc2C(=O)N1Cc1ccccc1-c1ccc(F)c(F)c1` (single isomer, unassigned; enantiomer 2), for which the IC50 is over 31 µM in series [2] and 1.1 µM in series [4]. The CLH in the series with Liver microsome worked out at 103 µL/min/mg.

Consider `CC(C)(C)NC(=O)C1c2ccccc2C(=O)N1Cc1ccccc1-c1ccccc1` (single isomer, unassigned; enantiomer 2), for which the IC50 in series [2] is over 33 µM.

Regarding `Cc1c(O)ccc2c1C(=O)N(Cc1ccccc1-c1ccccc1)C2C(=O)NC(C)(C)C` (single isomer, unassigned), the 50% inhibitory concentration (IC50) in series [5] is 1.1 µM; in series [2] it was over 32 µM; in series [4], 1.3 µM. This compound gave a CLH with Liver microsome of 20 µL/min/mg.

Take `Cc1c(OCF)ccc2c1C(=O)N(Cc1ccccc1-c1ccccc1)C2C(=O)NC(C)(C)C` (racemic): the logD in series [1] was determined as 5.6. The microsomal CLint in series [3] is over 100 µL/min/mg. In series [4], the IC50 stood at 1.3 µM.

Turning to `Cc1c(NS(C)(=O)=O)ccc2c1C(=O)N(Cc1ccccc1-c1ccccc1)C2C(=O)NC(C)(C)C` (racemic), the results for the IC50 in series [5], in series [2] and in series [4] were 31 µM, over 33 µM and 4.5 µM, respectively. In addition, the logD in series [1] came out at 4.3. The microsomal CLint in series [3] came out at 88 µL/min/mg.

Regarding `CCCCNC(=O)C1c2ccccc2C(=O)N1CC(C)c1ccc(F)cc1` (racemic), the logD in series [1] was found to be 4.1. In series [3], the microsomal CLint is 180 µL/min/mg. The compound also yielded an IC50 in series [4] of 0.9 µM.

`CC(CN1C(=O)c2ccccc2C1C(=O)NCC(F)F)c1ccc(Cl)cc1` (racemic): in series [1], the logD came to 3.7. Also, the microsomal CLint in series [3] stood at 73 µL/min/mg. The compound also came in with an IC50 in series [4] of 1.2 µM.

For `Cc1c(O)ccc2c1C(=O)N(Cc1ccccc1-c1ccccc1)C2C(=O)NC(C)(C)C` (single isomer, unassigned; enantiomer 2), the IC50 in series [5] stood at 17 µM; in series [2], 26 µM; in series [4], 3.4 µM. For the same compound, the CLH in the series with Liver microsome turned out to be 24 µL/min/mg.

Regarding `CC(C)(C)NC(=O)C1c2cc(C#N)ccc2C(=O)N1Cc1ccccc1-c1ccccc1` (racemic), in series [1], the logD turned out to be 4.7. The IC50 was over 33 µM in series [2] and 3.3 µM in series [4]. Also, the microsomal CLint in series [3] was over 100 µL/min/mg.

For `CC(C)(C)NC(=O)C1c2ccccc2C(=O)N1Cc1cc(F)ccc1-c1ccccc1` (single isomer, unassigned; enantiomer 1), the logD in series [1] was 5.2. The IC50 in series [2] is over 33 µM; in series [4] it was 1.4 µM. In series [3], the microsomal CLint stood at 102 µL/min/mg. For the same compound, the Activity with Mus musculus came out at 0.079 µM.

As to `CC(C)(C)NC(=O)C1c2ccccc2C(=O)N1Cc1ccc(F)cc1-c1ccc(F)cc1` (stereo unspecified), the logD in series [1] was found to be 5. For the same compound, the figures for the IC50 in series [2] and in series [4] were over 33 µM and 1.4 µM, respectively. In series [3], the microsomal CLint came out at 34 µL/min/mg. In addition, the Activity in the series with Mus musculus came out at 0.9 µM.

Regarding `COCCOCCNC(=O)C1c2cc(F)ccc2C(=O)N1CC(C)c1ccc(Cl)cc1` (racemic), the IC50 was over 32 µM in series [5] and over 33 µM in series [2]. Moreover, in series [1], the logD stood at 3.6. Moreover, in series [3], the microsomal CLint is over 100 µL/min/mg.

Turning to `O=C(NCc1ccncc1)C1c2ccccc2C(=O)N1Cc1ccccc1-c1ccccc1` (racemic), the IC50 is 13 µM in series [5] and over 33 µM in series [2]. Besides, the microsomal CLint in series [3] was over 100 µL/min/mg.

On to `Cc1c(OC(F)F)ccc2c1C(=O)N(Cc1ccccc1-c1ccccc1)C2C(=O)NC(C)(C)C` (racemic), for which the results for the IC50 in series [5] and in series [2] were 1.2 µM and 22 µM, respectively. Moreover, in series [1], the logD was 5.9. Also, the microsomal CLint in series [3] is over 100 µL/min/mg.

As for `COc1ccc2c(c1)C(=O)N(Cc1ccccc1-c1ccccc1)C2C(=O)NC(C)(C)C` (racemic), the IC50 in series [5] was found to be 11.3 µM; in series [2], 30 µM. The logD in series [1] worked out at 4.9. The microsomal CLint in series [3] was over 100 µL/min/mg.

In the series on Liver microsome, `CC(C)(CN1C(=O)c2ccccc2C1C(=O)NCCCF)c1ccc(Cl)cc1` (single isomer, unassigned; enantiomer 2) had a CLH of 19 µL/min/mg. The compound further yielded an IC50 in series [4] of 1 µM.

Regarding `Cc1c(OS(C)(=O)=O)ccc2c1C(=O)N(Cc1ccccc1-c1ccccc1)C2C(=O)NC(C)(C)C` (racemic), the IC50 in series [5] is 10.5 µM; in series [2] it was over 32 µM. In series [1], the logD worked out at 5.1. The microsomal CLint in series [3] is over 100 µL/min/mg.

On to `CC(C)(C)NC(=O)C1c2ccc(NS(C)(=O)=O)cc2C(=O)N1Cc1ccccc1-c1ccccc1` (racemic), for which the values for the half-maximal inhibitory concentration (IC50) in series [5], in series [2] and in series [4] were 17 µM, 15 µM and 7.6 µM, respectively. For the same compound, in series [1], the logD stood at 4. Also, in series [3], the microsomal CLint came out at 59 µL/min/mg.

For `CC(C)(CN1C(=O)c2ccccc2C1C(=O)NCCCC(F)F)c1ccc(F)cc1` (stereo unspecified), the logD in series [1] was 4.1. For the same compound, the microsomal CLint in series [3] amounted to 23 µL/min/mg. The compound further had an IC50 in series [4] of 0.6 µM.

With `CC(C)(CN1C(=O)c2ccccc2C1C(=O)NCC(F)F)c1ccc(F)cc1` (stereo unspecified), the logD in series [1] turned out to be 3.7. Also, the microsomal CLint in series [3] is under 12 µL/min/mg. Further, the Activity with Mus musculus is 1.6 µM. For the same compound, the IC50 in series [4] came to 1.2 µM.

For the compound `CC(C)(C)NC(=O)C1c2ccccc2C(=O)N1Cc1ccc(F)cc1-c1ccccc1` (single isomer, unassigned), the IC50 is over 32 µM in series [2] and 1.7 µM in series [4]. The CLH with Liver microsome is 62 µL/min/mg.

Take `Cc1c(O)ccc2c1C(=O)N(Cc1ccccc1-c1ccc(F)cc1)C2C(=O)NC(C)(C)C` (stereo unspecified): the logD in series [1] is 4.5. In addition, the IC50 in series [2] is over 32 µM; in series [4], 2.7 µM. In series [3], the microsomal CLint was under 12 µL/min/mg.

As to `CC(C)(C)NC(=O)C1c2ccccc2C(=O)N1Cc1ccccc1-c1ccc(F)cc1` (stereo unspecified), the logD in series [1] is 4.8. Besides, the IC50 in series [2] stood at 56 µM; in series [4] it was 6 µM. Further, the microsomal CLint in series [3] was found to be 53 µL/min/mg.

For `CC(C)(C)NC(=O)C1c2ccccc2C(=O)N1Cc1cc(F)ccc1-c1ccc(F)cc1` (single isomer, unassigned; enantiomer 1), the logD in series [1] was 5.3. In addition, the IC50 in series [2] was over 33 µM; in series [4], 2 µM. Moreover, the microsomal CLint in series [3] came to 49 µL/min/mg. For the same compound, the Activity in the series with Mus musculus is 0.055 µM.

With `CC(C)(C)NC(=O)C1c2cc(Cl)ccc2C(=O)N1C(c1cccnc1)c1cccnc1` (racemic), the IC50 in series [5] is over 32 µM. In addition, the microsomal CLint in series [3] was 62 µL/min/mg.

With `COc1ccc2c(c1C)C(=O)N(Cc1ccccc1-c1ccccc1)C2C(=O)NC(C)(C)C` (racemic), the logD in series [1] was determined as 5.6. In addition, the microsomal CLint in series [3] is over 100 µL/min/mg. In addition, in series [4], half-maximal inhibition (IC50) required 0.8 µM.

As for `CC(C)(C)NC(=O)C1c2ccc(O)cc2C(=O)N1Cc1ccccc1-c1ccccc1` (racemic), the IC50 in series [5] is 8.4 µM; in series [2], 45 µM; in series [4], 6.9 µM. Moreover, in series [1], the logD amounted to 4. For the same compound, the microsomal CLint in series [3] is over 100 µL/min/mg.

Compound `CC(C)(C)NC(=O)C1c2ccccc2C(=O)N1Cc1ccccc1-c1ccccc1` (single isomer, unassigned; enantiomer 1) returned an IC50 in series [2] of over 33 µM.

Turning to `Cc1c(O)ccc2c1C(=O)N(Cc1ccccc1-c1ccccc1)C2C(=O)NC(C)(C)C` (racemic), the values for the IC50 in series [5], in series [2] and in series [4] were 3.2 µM, 46 µM and 2 µM, respectively. Further, the logD in series [1] stood at 4.4. Besides, in series [3], the microsomal CLint was under 12 µL/min/mg.
